Entries after “also recorded” stand apart in the source; their conditions may differ.
How the values were obtained:
Arabidopsis plants = test: Spray treatment of Arabidopsis plants; assay type: in vivo, Arabidopsis thaliana
Experimental: (§1) Plant material—Arabidopsis thaliana ecotype Columbia-0 was used in all experiments that utilised Arabidopsis. For spray experiments, many seeds were sown in compost inside pots with a base area of […]. The plants were treated with herbicide formulations by spraying when they were 2-3 weeks old. To obtain leaf discs, individual plants were sown in single pots and grown for 4 weeks. Leaf discs of 1-cm diameter were cored from fully expanded leaves. Glyphosate-resistant and susceptible biotypes of Conyza sumatrensis [(Retz.) E. Walker] were obtained from an olive grove in Italy. For spraying experiments, many plants were sown in compost inside pots with a base area of 81 cm^2. Plants were spray-treated at 2 weeks from sowing. For leaf disc experiments, individual plants were sown in single pots and grown for 8 weeks before coring 1-cm diameter leaf discs from fully expanded leaves. All plants were grown in a 16 h photoperiod (˜200 μmol·m^−2·s^−1) at 22° C.
(§2) Chemicals—Shikimic acid and pure glyphosate were purchased from Sigma-Aldrich (Dorset, UK). These were used to make stock solutions in water that were adjusted to pH 5.5 and used for treatment of leaf discs. Shikimate-3-phosphate trisodium salt was purchased from Santa Cruz Biotechnology (Dallas, Tex.). Gallup® 360 (Barclay Chemicals Manufacturing Ltd, Dublin, Ireland), a formulation of 360 g/L glyphosate, was used for spray treatments after diluting down to the desired rate.
(§3) Treatments—Leaf discs of 1 cm-diameter were cored from plants and floated on 10 mL solutions inside Petri dishes. A minimum of 5 replicate discs per treatment arising from 5 independent plants were used. For dark incubation, the Petri dishes were wrapped in aluminium foil to exclude light. Leaf discs were harvested at time-points indicated in the Figure legends for photographing or for shikimic acid analysis. For spray treatments, glyphosate was formulated in 3 mL with enough Gallup® to achieve the desired rate on a surface area of 36 cm^2 or 81 cm^2 pots. A commercial herbicide enhancer oil Activator-G™ (Agrigem Ltd., Market Rasen, UK) was added as an adjuvant to spray at a final rate of 1 L/ha. Shikimate-3-phosphate was added to a final concentration of 500 μM in the 3 mL. Control plants were sprayed with water containing Activator-G only.
Next we turned our attention to the inexplicable retardation of shikimate conversion to shikimate-3-phosphate during exposure to glyphosate. We proposed the hypothesis that shikimate-3-phosphate is a critical component required for glyphosate to be phytotoxic and that glyphosate-susceptible plants attempt to block its formation in order to avoid death. We sprayed 2-week-old Arabidopsis plants with a formulation of glyphosate at different rates with or without shikimate-3-phosphate as an additive. […]

[1] = test system: Conyza sumatrensis leaf discs; test: Leaf discs floated on glyphosate solutions, phytotoxicity / cell death; assay type: cell-based
Experimental: as §1, §2, §3
While studying programmed cell death, we noted that light is a crucial factor in the activation of plant cell death (Chivasa et al., 2009; Wang et al., 2012; Smith et al., 2014). We wondered if deprivation of light could also block glyphosate toxicity. To investigate this, we used a previously published in vitro assay (Teaster and Hoagland, 2013) in which leaf discs are floated over glyphosate solutions of desired concentration.

[2] = test system: Conyza sumatrensis leaf discs; test: Shikimic acid accumulation in leaf discs; assay type: cell-based
Experimental: as §3
Shikimic acid analysis—Leaf discs floating on treatment solutions were blotted dry, added to microfuge tubes containing 125 μL of 0.25 N HCL before snap-freezing in liquid nitrogen and storing at −20° C. Samples were thawed at room temperature, vortexed for 5 min, and then incubated at 60° C. for 15 min. Aliquots of 25 μL were withdrawn and mixed with 100 μL of 0.25% (w/v) periodic acid/0.25% m-periodate in fresh microfuge tubes. After 30 min incubation at 37° C., 100 μL of 0.6 N NaOH/0.22 M Na2SO3 were added and the volume made up to 1 mL with distilled water. The shikimic acid in the samples was determined by spectrophotometric measurements at 382 nm against a reagent only blank and using a calibration curve of shikimic acid standards. The shikimic acid accumulating in response to glyphosate treatment was calculated as the difference between the reading from mock-treated control leaf discs and the glyphosate-treated discs. Values were expressed as μg/mL shikimic acid.

[3] = 25° C.; cited from earlier work
[4] = test system: Arabidopsis shikimate pathway genes; test: Quantitative real-time PCR of shikimate pathway genes in leaf discs; assay type: cell-based, Arabidopsis thaliana
Experimental: Gene expression analysis—RNA was extracted from leaf tissues using the Spectrum Plant Total RNA kit (Sigma-Aldrich) according to the manufacturer's instructions. Each sample was a pool of five 1 cm-diameter leaf discs arising from 5 independent plants. First strand cDNA synthesis was performed using 4 μg total RNA and oligod(T) using Promega (Southampton, UK) GoScript Reverse Transcription System. Quantitative real-time polymerase chain reaction was performed using SensiFast reagent kit (Bioline, London, UK) on a Rotorgene-Q (Qiagen, Crawley, UK). Each 20 μL reaction contained 10 μL SensiFast reagent, 5 μL cDNA template that had been diluted 1:8, and 8 pmoles each primer (forward and reverse primers). Cycling conditions used were as follows: denaturation at 95° C. for 2 mins followed by 40 cycles of 95° C. for 10 sec, annealing at 56° C. for 15 sec, and extension at 72° C. for 25 sec. Data analysis was performed using REST2009 (Qiagen, Crawley, UK) using ACTIN2 (At3g18780) and EIF4 (At3g13920) as reference control genes. Triplicate samples per treatment per time-point were analysed in order to calculate a mean and standard deviation.
Arabidopsis leaf discs were floated on 25 μM glyphosate solutions and incubated in light or total darkness. Samples were harvested at various intervals within 72 h of treatment for quantification of shikimic acid and analysis of gene expression using quantitative real-time PCR. […] All three DAPS genes were differentially regulated, only one of the five putative SK genes responded to glyphosate, both EPSPS genes were responsive, and the chorismate synthase (CS) genes responded as well (FIG. 6). Up-regulation of the shikimate pathway components triggered by blockading flux with glyphosate is a typical metabolic response.

[5] = test system: Glyphosate-resistant (GR) and susceptible (GS) C. sumatrensis plants; test: Cut shoots placed in glyphosate solution with or without gluconic acid; assay type: in vivo, Conyza sumatrensis; conditions: 100 μM glyphosate only, ten days (FIG. 8)
Experimental: Glyphosate-resistant (GR) and susceptible (GS) C. sumatrensis plants were germinated in soil and transferred to solutions of 100 μM glyphosate with or without 5 mM gluconic acid.
Because the pentose phosphate pathway gene GntK responds to glyphosate, we tested if intermediates in the pathway might also influence glyphosate toxicity (FIG. 8). Glyphosate resistant (GR) and glyphosate susceptible (GS) Conyza sumatrensis were germinated in soil and the shoots cut off at the base of the stem and placed in 2 mL of 100 μM glyphosate with or without gluconic acid at various concentrations. […] Cessation of growth and development of chlorosis are key hallmarks of glyphosate toxicity.

Arabidopsis leaf discs = test: Shikimic acid accumulation in Arabidopsis leaf discs; assay type: cell-based, Arabidopsis thaliana; conditions: 25 μM glyphosate
Experimental: as §3, with “Control plants were sprayed with water containing Activator-G only.” left out
Shikimic acid analysis—Leaf discs floating on treatment solutions were blotted dry, added to microfuge tubes containing 125 μL of 0.25 N HCL before snap-freezing in liquid nitrogen and storing at −20° C. […] The shikimic acid in the samples was determined by spectrophotometric measurements at 382 nm against a reagent only blank and using a calibration curve of shikimic acid standards. The shikimic acid accumulating in response to glyphosate treatment was calculated as the difference between the reading from mock-treated control leaf discs and the glyphosate-treated discs. Values were expressed as μg/mL shikimic acid. […]

Galium mollugo cells = conditions: glyphosate-treated Galium mollugo cells; cited from earlier work
[6] = test system: phenylalanine ammonia-lyase (PAL); conditions: Buckwheat PAL inhibition; cited from earlier work
[7] = glyphosate, dark incubation (FIG. 6)
[8] = glyphosate-treated leaf discs (FIG. 6)

O=C([O-])C1=C[C@@H](OP(=O)([O-])[O-])[C@@H](O)[C@H](O)C1.[Na+].[Na+].[Na+] [Shikimate-3-phosphate, Shikimate-3-phosphate trisodium salt]
adverse effects on Arabidopsis (Arabidopsis plants; 500 μM shikimate-3-phosphate on its own, spray (FIG. 7C)): did not have any adverse effects

O=C(O)C1=C[C@@H](O)[C@@H](O)[C@H](O)C1 [shikimic acid, Shikimic acid]
breaking of glyphosate resistance at lower shikimic acid concentrations ([1]; with glyphosate, shikimic acid below 1-5 mM, 7 days (FIG. 4B)): unable to
shikimic acid concentrations able to break glyphosate resistance ([1]; with glyphosate, within 7 days of application (FIG. 4B)): 1 to 5 mM
phytotoxicity of shikimic acid on its own ([1]; without glyphosate, up to 15 mM): not phytotoxic; also recorded: did not cause any phytotoxicity

O=C(O)CNCP(=O)(O)O [glyphosate, N-[phosphonomethyl] glycine]
shikimic acid accumulation in leaf tissues ([2]; continuous dark incubation (FIG. 2B)): suppressed shikimic acid accumulation
shikimic acid level, susceptible versus resistant biotype ([2]; glyphosate 25-200 μM, one week (FIG. 3B)): significantly higher levels of shikimic acid than the resistant biotype
shikimic acid concentration in leaf tissues ([2]; light-dark cycle, one week after treatment (FIG. 2B)): massive rise
maximum concentration of shikimic acid accumulating ([2]; susceptible C. sumatrensis, within 3 days of exposure to glyphosate): 10 to 15 mM
solubility in water [3]: 1.16 % by weight
phytotoxic effects at much higher glyphosate concentration ([1]; 1 mM glyphosate, dark incubation, 3 days (FIG. 2C)): still requires light for phytotoxicity; also recorded: dark-incubation suppressed the phytotoxic effects
phytotoxic effects of glyphosate on leaf discs ([1]; incubated in complete darkness, 100 μM glyphosate, 14 days (FIG. 2A)): protected from the phytotoxic effects
viability of leaf discs ([1]; resistant biotype, 100 μM glyphosate on its own (FIG. 4A)): did not affect the viability
shikimate accumulation and cell death by biotype ([1]; susceptible and resistant biotypes (FIG. 3)): activates shikimate accumulation and cell death in the susceptible, but not resistant biotype
time until cell death (chlorosis, browning) easily visible ([1]; susceptible biotype, leaf discs floated on glyphosate): 10 to 14 days
expression of At2g16790 in the dark [4, 7]: also stimulated in the dark
glyphosate-induced stimulation of other genes in the dark [4, 7]: dark incubation suppressed glyphosate-induced stimulation
expression of DAHPS, SK, EPSPS and CS genes ([4]; glyphosate, in light (FIG. 6)): significant changes in the expression
change in gene expression of At2g16790 [4, 8]: over 30 fold
change in gene expression of all other genes [4, 8]: below 6 fold
growth and chlorosis of GR plants ([5]; GR plants): have grown with expanded healthy and green leaves; also recorded: remained healthy and green
growth and chlorosis of GS plants ([5]; GS plants): stunted and chlorotic; also recorded: stopped growing and developed chlorosis, which eventually led to tissue death
symptoms after foliar application by spraying (Arabidopsis plants; 2-week-old plants, Gallup 360 formulation (FIG. 7A)): causes chlorosis and then cell death of apical meristems
effects on plant growth (Arabidopsis plants; glyphosate 18 g/ha, spray, 3 weeks (FIG. 7B)): no effects on plant growth
effects on Arabidopsis (Arabidopsis plants; glyphosate 36 g/ha, spray, 3 weeks (FIG. 7B)): very modest effects
shikimic acid accumulation (Arabidopsis leaf discs; dark incubation (FIG. 5)): suppressed shikimic acid accumulation
shikimic acid accumulation (Arabidopsis leaf discs; incubated in light, within 72 h (FIG. 5)): significant accumulation of shikimic acid
estimated cellular shikimic acid (Galium mollugo cells): 20 to 23 mM

NO[C@@H](Cc1ccccc1)C(=O)O [L-α-aminooxy-β-phenylpropionic acid]
phenylalanine accumulation, light versus dark [6]: three-fold higher phenylalanine accumulation in light than in the dark

— patent publication US11266149B2, “Herbicidal compositions” (University of Durham, priority 2016, dated 2022)
